Experimental data taken from ChEMBL document CHEMBL1147473, “Synthesis of a bioprobe for elucidation of target molecule of spongean anti-malarial peroxides” (Bioorg Med Chem Lett, 2004).

Tested on: Plasmodium falciparum
Experiment: Inhibitory concentration against Plasmodium falciparum
Type: functional, organism-based

| SMILES | IC50 |
| --- | --- |
| COC(=O)CC1CCC(CCCCCOC(=O)NCCCCNC(=O)OCCOCCOC(=O)NCCCC[C@@H]2CCC3NC(=O)NC32)(OC)OO1 (some centres not stated) | 570 nM |
| COC(=O)CC1CCC(CCCCCOC(=O)NCCCC[C@@H]2CCC3NC(=O)NC32)(OC)OO1 (some centres not stated) | 910 nM |
